Source: ChEMBL document CHEMBL1201862, “PubChem BioAssay data set” (2004)
Activity calls are given as the source filed them.

What was measured:
[1] = Trypanosoma cruzi growth suppression in host cells – NIH3T3 host cells, beta-gal luminescence, confirmation (AID 2044); assay type: functional, cell-based;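 note: intracellular parasites grown in NIH/3T3 mouse fibroblasts as host cells; luminescent beta-galactosidase reporter signal from transgenic T. cruzi replicating inside host cells; inhibitors lower the luminescence signal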
[2] = NIH3T3 cell viability loss – ATP luminescence, mouse fibroblasts, counter-screen, dose response (AID 2010); assay type: functional, cell-based;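 note: cells exposed to compound for about 90 hours before reading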
Cytochrome P450 2C9 = Cytochrome P450 2C9 (Homo sapiens, UniProt P11712)
Cytochrome P450 2C19 = Cytochrome P450 2C19 (Homo sapiens, UniProt P33261); assay: Cytochrome panel assay with activity outcomes. Panel member name: p450-cyp2c19 Compounds with AC50 equal or less than 10 uM are considered active; assay type: functional
Sequence of Cytochrome P450 2C19 (P33261 whole entry): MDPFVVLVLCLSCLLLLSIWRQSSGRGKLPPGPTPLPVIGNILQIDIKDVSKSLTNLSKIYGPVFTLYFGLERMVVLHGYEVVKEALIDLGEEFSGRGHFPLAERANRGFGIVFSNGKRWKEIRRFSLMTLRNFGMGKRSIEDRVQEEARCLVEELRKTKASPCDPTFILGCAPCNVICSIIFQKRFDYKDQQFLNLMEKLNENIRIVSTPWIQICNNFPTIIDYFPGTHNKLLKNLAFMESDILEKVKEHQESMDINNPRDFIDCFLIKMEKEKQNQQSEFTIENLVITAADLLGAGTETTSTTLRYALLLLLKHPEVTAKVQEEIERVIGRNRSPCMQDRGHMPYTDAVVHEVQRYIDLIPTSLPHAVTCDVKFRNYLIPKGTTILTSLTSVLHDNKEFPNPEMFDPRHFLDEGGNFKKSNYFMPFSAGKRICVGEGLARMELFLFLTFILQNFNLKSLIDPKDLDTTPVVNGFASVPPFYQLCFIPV

Sequence of Cytochrome P450 2C9 (P11712 whole entry): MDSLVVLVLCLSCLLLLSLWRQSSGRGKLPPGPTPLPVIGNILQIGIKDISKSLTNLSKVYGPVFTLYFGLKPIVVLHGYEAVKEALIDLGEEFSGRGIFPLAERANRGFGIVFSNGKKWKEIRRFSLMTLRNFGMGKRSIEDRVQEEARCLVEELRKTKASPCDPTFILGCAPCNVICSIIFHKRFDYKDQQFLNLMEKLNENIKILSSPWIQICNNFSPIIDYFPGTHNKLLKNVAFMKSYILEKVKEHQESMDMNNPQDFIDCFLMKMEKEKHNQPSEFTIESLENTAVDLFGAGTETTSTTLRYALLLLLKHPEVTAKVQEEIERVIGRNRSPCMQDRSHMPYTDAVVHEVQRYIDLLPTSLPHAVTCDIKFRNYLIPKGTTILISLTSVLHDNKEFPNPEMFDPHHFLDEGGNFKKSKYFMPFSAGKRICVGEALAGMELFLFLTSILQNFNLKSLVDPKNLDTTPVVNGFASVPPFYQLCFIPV

Compound	EC50 [1]	EC50 [2]	AC50 (Cytochrome P450 2C9)	AC50 (Cytochrome P450 2C19)
CCN(C(=O)c1cc2c(O)nc3ccc(C)cc3c2s1)c1cccc(C)c1	0.708 µM (active)	> 60 µM (inconclusive)		
CCC(=O)Nc1ccc(C(=O)CSc2nnc(-c3ccc(O)cc3)n2CC2CCCO2)cc1OC (centres undefined)			15.8 µM (inconclusive)	
COCC1CCCCN1Cc1c[nH]nc1-c1ccc2cc(OC)ccc2c1 (centres undefined)	0.679 µM (active)	> 60 µM (not active)		
Clc1ccc(-c2nnc(-c3cccc4ccccc34)o2)cc1Cl				inconclusive
C[C@@H]1O[C@@H](O)[C@@H](O)[C@H](O)[C@H]1O				inconclusive
CCOc1ccc(N(CC(=O)NCCC2=CCCCC2)S(=O)(=O)c2ccccc2)cc1	2.58 µM (active)	10.6 µM (active)		
Cc1cc(C)c(S(=O)(=O)c2ccc(F)cc2C)c(Cl)n1	0.867 µM (active)	> 60 µM (not active)		
O=C(CN1C(=O)COc2ccccc21)N(Cc1cccnc1)Cc1cccc(F)c1	0.557 µM (active)	> 60 µM (not active)		
Cc1cc(C(C)(C)C)cc(CNC2CCCCC2)c1O			7.94 µM (inconclusive)	
O=C1CN(c2nc(-c3cccnc3)nc3scc(-c4ccccc4)c23)CCN1	4.67 µM (active)	59.3 µM (active)		
O=[N+]([O-])c1nn(-c2ccccc2)[n+]([O-])c1NCCc1ccccc1	0.478 µM (active)	> 60 µM (inconclusive)		
Cc1ccc(C)c(N2CCN(CC(=O)Nc3ccc([N+](=O)[O-])cc3C(=O)Nc3ccccc3F)CC2)c1	1.19 µM (active)	> 60 µM (not active)		
CSc1nsc(SC)c1C(=O)Nc1ccc(C)cc1			15.8 µM (inconclusive)	
N#Cc1c(C(F)(F)F)cc(-c2ccco2)nc1SCc1ccncc1	0.975 µM (active)	4.74 µM (active)		
FC(F)(F)c1cccc(CN2CCC(c3cc(-c4cccs4)[nH]n3)CC2)c1	2.31 µM (active)	14.6 µM (active)		
CCOC(=O)c1c(NC(=O)C2=C(C)N=C(S)NC2c2ccccc2C(F)(F)F)sc(C)c1C (centres undefined)	2.4 µM (active)	> 60 µM (not active)		

Compound	EC50 [1]	EC50 [2]	AC50 (Cytochrome P450 2C9)	AC50 (Cytochrome P450 2C19)
COc1ccc(Cn2c(-c3ccc(Br)cc3)c[n+]3ccccc23)cc1	0.822 µM (active)	> 30 µM (not active)		
CCN(CC)CCN(C(=O)c1ccc(S(=O)(=O)N(C)C2CCCCC2)cc1)c1nc2ccc(OC)cc2s1	0.105 µM (active)	> 60 µM (not active)		
Cc1ccc(S(=O)ON2CCC(C(=O)O)(c3ccccc3)CC2)cc1 (centres undefined)				inconclusive
O=C(CCCn1cnc([N+](=O)[O-])n1)Nc1ccc(Cl)cc1Cl	0.132 µM (active)	> 60 µM (inconclusive)		
CCN1C(=O)C(CC(=O)Nc2ccc(OC)cc2)N(Cc2cccnc2)C1=S (centres undefined)			10 µM (inconclusive)	
c1ccc(-c2nc3ccccc3o2)nc1			39.8 µM (inconclusive)	
O=C(O)C/C(=C\c1ccco1)C(=O)O				inconclusive
Cc1ccc(-n2nnnc2Sc2nc([N+](=O)[O-])nn2C)cc1C			1.58 µM (inconclusive)	
Cc1cc2nc(SCCOC(=O)Nc3ccc(Cl)cc3)nc(C)c2cc1C			2.82 µM (inconclusive)	
COc1cccc(NC(=S)N2CCn3cccc3C2c2cccnc2)c1 (centres undefined)	1.12 µM (active)	> 60 µM (not active)		
CC1=CC(=C(C#N)c2nc3ccccc3s2)C=C(C)N1Cc1ccco1	1.75 µM (active)	> 30 µM (not active)		
Cc1ccc2c(c1)N(CC(=O)N1CCCCC1c1cccnc1)C(=O)CO2 (centres undefined)	0.482 µM (active)	> 60 µM (not active)		
CCN1CCN(CCC(=O)Nc2cccc(OC)c2)CC1.Cl				inconclusive
CCS(=O)(=O)c1ccc2c(c1)N(S(=O)(=O)c1ccccc1)CC(C(=O)O)O2 (centres undefined)			12.6 µM (inconclusive)	
C=CC1=C[C@@H](O)C2OC2C12OCCCO2 (some centres undefined)				inconclusive
Fc1ccc(CN(C2=NCCN2)c2c(Cl)cccc2Cl)cc1			39.8 µM (inconclusive)	
